Test results: patent publication US9227971B2, “Pyrazolo[1,5-a]pyrimidine compounds as mTOR inhibitors” (Merck Sharp & Dohme Corp., priority 2010, dated 2016)
Where two headings read alike, the source gives them in different places.

Columns and labels:
[1] = tested on: phosphorylated AKT Ser473 (pAKT S473), mTORC2 activity, PC3 cells; assay: mTOR target engagement assay, immunofluorescent cell-based, pAKT S473 readout (mTORC2 activity); details: PC3 cells
Procedure, shortened: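 After blocking, cells were stained overnight at 4 °C with anti-pAKT S473 antibody, then a fluorescent secondary; inhibition was read as reduced fluorescence intensity.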

[2] = tested on: phosphorylated 4E-BP1 Thr37/46 (p4E-BP1 Thr37/46), mTORC1 activity, PC3 cells; assay: mTOR target engagement assay, immunofluorescent cell-based, p4E-BP1 Thr37/46 readout (mTORC1 activity); details: PC3 cells, read-out: p4E-BP1 Thr37/46 IC50
Procedure, shortened: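 Cell-based immunofluorescence in PC3 cells: serially diluted compounds (0.25% DMSO, 5% FBS) applied for ninety minutes at 37° C before fixation and overnight 4° C staining of p4E-BP1 Thr37/46. Untreated DMSO wells set maximal phosphorylation; IC50 obtained by logistic fitting.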

Row | Compound | IC50 ([1]; Homo sapiens, PC-3, Table 3-1) [µM] | IC50 ([2]; Homo sapiens, PC-3, Table 3-1) [µM] | IC50 ([1]; Table 3-1) [µM] | IC50 ([2]; Table 3-1) [µM]
1 | CCNC(=O)N1[C@@H]2CC[C@H]1C[C@H](c1nc3c(-c4ccc(-c5ccccc5F)nc4)cnn3c(N)c1S(C)(=O)=O)C2 [Compound 3.130, (1R,3s,5S)-3-(7-amino-3-(6-(2-fluorophenyl)pyridin-3-yl)-6-(methylsulfonyl)pyrazolo[1,5-a]pyrimidin-5-yl)-N-ethyl-8-azabicyclo[3.2.1]octane-8-carboxamide] | 0.1 to 1 | 0.1 to 1 |  | 
2 | CS(=O)(=O)c1c([C@@H]2C[C@H]3CC[C@@H](C2)N3C(N)=O)nc2c(-c3ccc(-c4ccccc4F)nc3)cnn2c1N [Compound 3.131, (1R,3s,5S)-3-(7-amino-3-(6-(2-fluorophenyl)pyridin-3-yl)-6-(methylsulfonyl)pyrazolo[1,5-a]pyrimidin-5-yl)-8-azabicyclo[3.2.1]octane-8-carboxamide] | 0.001 to 0.1 | 0.001 to 0.1 |  | 
3 | CS(=O)(=O)c1c([C@@H]2C[C@H]3CC[C@@H](C2)N3C(=O)CO)nc2c(-c3ccc(-c4ccccc4F)nc3)cnn2c1N [Compound 3.132, 1-((1R,3a,5S)-3-(7-amino-3-(6-(2-fluorophenyl)pyridin-3-yl)-6-(methylsulfonyl)pyrazolo[1,5-a]pyrimidin-5-yl)-8-azabicyclo[3.2.1]octan-8-yl)-2-hydroxyethanone] | 0.001 to 0.1 | 0.1 to 1 |  | 
4 | Cc1nnc(C(=O)N2[C@@H]3CC[C@H]2C[C@H](c2nc4c(-c5ccc(-c6ccccc6F)nc5)cnn4c(N)c2S(C)(=O)=O)C3)[nH]1 [Compound 3.133, ((1R,3s,5S)-3-(7-amino-3-(6-(2-fluorophenyl)pyridin-3-yl)-6-(methylsulfonyl)pyrazolo[1,5-a]pyrimidin-5-yl)-8-azabicyclo[3.2.1]octan-8-yl)(5-methyl-4H-1,2,4-triazol-3-yl)methanone] | 0.001 to 0.1 | 0.001 to 0.1 |  | 
5 | CS(=O)(=O)c1c([C@@H]2C[C@H]3CC[C@@H](C2)N3C(=O)c2cc(N)n[nH]2)nc2c(-c3ccc(-c4ccccc4F)nc3)cnn2c1N [Compound 3.134] |  |  | 0.001 to 0.1 | 0.001 to 0.1
6 | CS(=O)(=O)c1c([C@@H]2C[C@H]3CC[C@@H](C2)N3C(=O)c2ccn[nH]2)nc2c(-c3ccc(-c4ccccc4F)nc3)cnn2c1N [Compound 3.135, ((1R,3s,5S)-3-(7-amino-3-(6-(2-fluorophenyl)pyridin-3-yl)-6-(methylsulfonyl)pyrazolo[1,5-a]pyrimidin-5-yl)-8-azabicyclo[3.2.1]octan-8-yl)(1H-pyrazol-5-yl)methanone] | 0.001 to 0.1 | 0.001 to 0.1 |  | 
7 | CS(=O)(=O)c1c([C@@H]2C[C@H]3CC[C@@H](C2)N3C(=O)c2nnc[nH]2)nc2c(-c3cnc(-c4ccccc4)nc3)cnn2c1N [Compound 3.136, ((1R,3s,5S)-3-(7-amino-6-(methylsulfonyl)-3-(2-phenylpyrimidin-5-yl)pyrazolo[1,5-a]pyrimidin-5-yl)-8-azabicyclo[3.2.1]octan-8-yl)(4H-1,2,4-triazol-3-yl)methanone] | 0.001 to 0.1 | 0.001 to 0.1 |  | 
8 | Cc1nc(N)ncc1C(=O)N1[C@@H]2CC[C@H]1C[C@H](c1nc3c(-c4ccc(-c5ccccc5)nc4)cnn3c(N)c1S(C)(=O)=O)C2 [Compound 3.137, (2-amino-4-methylpyrimidin-5-yl)((1R,3a,5S)-3-(7-amino-6-(methylsulfonyl)-3-(6-phenylpyridin-3-yl)pyrazolo[1,5-a]pyrimidin-5-yl)-8-azabicyclo[3.2.1]octan-8-yl)methanone] | 1 to 10 | 1 to 10 |  | 
9 | CS(=O)(=O)c1c([C@@H]2C[C@H]3CC[C@@H](C2)N3C(=O)c2coc(=O)[nH]2)nc2c(-c3ccc(-c4ccccc4)nc3)cnn2c1N [Compound 3.138, 4-((1R,3s,5S)-3-(7-amino-6-(methylsulfonyl)-3-(6-phenylpyridin-3-yl)pyrazolo[1,5-a]pyrimidin-5-yl)-8-azabicyclo[3.2.1]octane-8-carbonyl)oxazol-2(3H)-one] | 0.1 to 1 | 0.1 to 1 |  | 
10 | CS(=O)(=O)c1c([C@@H]2C[C@H]3CC[C@@H](C2)N3C(=O)c2c[nH]c(=O)[nH]2)nc2c(-c3ccc(-c4ccccc4)nc3)cnn2c1N [Compound 3.139, 4-((1R,3s,5S)-3-(7-amino-6-(methylsulfonyl)-3-(6-phenylpyridin-3-yl)pyrazolo[1,5-a]pyrimidin-5-yl)-8-azabicyclo[3.2.1]octane-8-carbonyl)-1H-imidazol-2(3H)-one] | 0.001 to 0.1 | 0.1 to 1 |  | 
11 | CS(=O)(=O)c1c([C@@H]2C[C@H]3CC[C@@H](C2)N3C(=O)c2cccc(=O)[nH]2)nc2c(-c3ccc(-c4ccccc4)nc3)cnn2c1N [Compound 3.140, 6-((1R,3s,5S)-3-(7-amino-6-(methylsulfonyl)-3-(6-phenylpyridin-3-yl)pyrazolo[1,5-a]pyrimidin-5-yl)-8-azabicyclo[3.2.1]octane-8-carbonyl)pyridin-2(1H)-one] | 0.001 to 0.1 | 0.1 to 1 |  | 
12 | CS(=O)(=O)c1c([C@@H]2C[C@H]3CC[C@@H](C2)N3C(=O)[C@@H]2COC(=O)N2)nc2c(-c3ccc(-c4ccccc4)nc3)cnn2c1N [Compound 3.141, (S)-4-((1R,3R,5S)-3-(7-amino-6-(methylsulfonyl)-3-(6-phenylpyridin-3-yl)pyrazolo[1,5-a]pyrimidin-5-yl)-8-azabicyclo[3.2.1]octane-8-carbonyl)oxazolidin-2-one] | 1 to 10 | 1 to 10 |  | 
13 | CS(=O)(=O)c1c([C@@H]2C[C@H]3CC[C@@H](C2)N3C(=O)[C@H]2COC(=O)N2)nc2c(-c3ccc(-c4ccccc4)nc3)cnn2c1N [Compound 3.142, (R)-4-((1R,3S,5S)-3-(7-amino-6-(methylsulfonyl)-3-(6-phenylpyridin-3-yl)pyrazolo[1,5-a]pyrimidin-5-yl)-8-azabicyclo[3.2.1]octane-8-carbonyl)oxazolidin-2-one] | 0.1 to 1 | 0.1 to 1 |  | 
14 | CS(=O)(=O)c1c([C@@H]2C[C@H]3CC[C@@H](C2)N3C(=O)c2ccnc(N)n2)nc2c(-c3ccc(-c4ccccc4)nc3)cnn2c1N [Compound 3.143, ((1R,3s,5S)-3-(7-amino-6-(methylsulfonyl)-3-(6-phenylpyridin-3-yl)pyrazolo[1,5-a]pyrimidin-5-yl)-8-azabicyclo[3.2.1]octan-8-yl)(2-aminopyrimidin-4-yl)methanone] | 0.1 to 1 | 0.1 to 1 |  | 
15 | COc1ccc(-c2ncc(-c3cnn4c(N)c(S(C)(=O)=O)c([C@@H]5C[C@H]6CC[C@@H](C5)N6C(=O)c5nnc[nH]5)nc34)cn2)cc1F [Compound 3.147, ((1R,3s,5S)-3-(7-amino-3-(2-(3-fluoro-4-methoxyphenyl)pyrimidin-5-yl)-6-(methylsulfonyl)pyrazolo[1,5-a]pyrimidin-5-yl)-8-azabicyclo[3.2.1]octan-8-yl)(4H-1,2,4-triazol-3-yl)methanone] | 1 to 10 | 1 to 10 |  | 
16 | COc1ccc(-c2ncc(-c3cnn4c(N)c(S(C)(=O)=O)c([C@@H]5C[C@H]6CC[C@@H](C5)N6C(=O)c5nnc[nH]5)nc34)cn2)c(F)c1F [Compound 3.148, ((1R,3s,5S)-3-(7-amino-3-(2-(2,3-difluoro-4-methoxyphenyl)pyrimidin-5-yl)-6-(methylsulfonyl)pyrazolo[1,5-a]pyrimidin-5-yl)-8-azabicyclo[3.2.1]octan-8-yl)(4H-1,2,4-triazol-3-yl)methanone] | 0.1 to 1 | 0.1 to 1 |  | 
17 | COc1ccc(-c2ncc(-c3cnn4c(N)c(S(C)(=O)=O)c([C@@H]5C[C@H]6CC[C@@H](C5)N6C(=O)CO)nc34)cn2)c(F)c1F [Compound 3.149, 1-((1R,3s,5S)-3-(7-amino-3-(2-(2,3-difluoro-4-methoxyphenyl)pyrimidin-5-yl)-6-(methylsulfonyl)pyrazolo[1,5-a]pyrimidin-5-yl)-8-azabicyclo[3.2.1]octan-8-yl)-2-hydroxyethanone] | 1 to 10 | 0.1 to 1 |  | 
18 | CS(=O)(=O)c1c([C@@H]2C[C@H]3CC[C@@H](C2)N3C(=O)c2nnc[nH]2)nc2c(-c3ccc(-n4cccn4)nc3)cnn2c1N [Compound 3.150, ((1R,3s,5S)-3-(3-(6-(1H-pyrazol-1-yl)pyridin-3-yl)-7-amino-6-(methylsulfonyl)pyrazolo[1,5-a]pyrimidin-5-yl)-8-azabicyclo[3.2.1]octan-8-yl)(4H-1,2,4-triazol-3-yl)methanone] | 0.001 to 0.1 | 0.001 to 0.1 |  | 
19 | CC(C)(O)c1ncc(-c2cnn3c(N)c(S(C)(=O)=O)c([C@@H]4C[C@H]5CC[C@@H](C4)N5C(=O)c4nnc[nH]4)nc23)cn1 [Compound 3.152, ((1R,3s,5S)-3-(7-amino-3-(2-(2-hydroxypropan-2-yl)pyimidin-5-yl)-6-(methylsulfonyl)pyrazolo[1,5-a]pyrimidin-5-yl)-8-azabicyclo[3.2.1]octan-8-yl)(4H-1,2,4-triazol-3-yl)methanone] | 1 to 10 | 1 to 10 |  | 
20 | CS(=O)(=O)c1c([C@@H]2C[C@H]3CC[C@@H](C2)N3C(=O)CO)nc2c(-c3ccc(-n4cccn4)nc3)cnn2c1N [Compound 3.153, 1-((1R,3s,5S)-3-(3-(6-(1H-pyrazol-1-yl)pyridin-3-yl)-7-amino-6-(methylsulfonyl)pyrazolo[1,5-a]pyrimidin-5-yl)-8-azabicyclo[3.2.1]octan-8-yl)-2-hydroxyethanone] | 0.1 to 1 | 1 to 10 |  | 
21 | CS(=O)(=O)c1c([C@@H]2C[C@H]3CC[C@@H](C2)N3C(=O)c2nnc[nH]2)nc2c(-c3ccc(C(N)=O)c(F)c3)cnn2c1N [Compound 3.155, 4-(5-((1R,3s,5S)-8-(4H-1,2,4-triazole-3-carbonyl)-8-azabicyclo[3.2.1]octan-3-yl)-7-amino-6-(methylsulfonyl)pyrazolo[1,5-a]pyrimidin-3-yl)-2-fluorobenzamide] | > 10 | 1 to 10 |  | 
